Experimental data: patent publication US10273227B2, “C5-anilinoquinazoline compounds and their use in treating cancer” (AstraZeneca AB, priority 2017, dated 2019)

Assays:
Format in all cases: cell-based
[1] = system: Ba/F3-Parental; experiment: MTS viability assay, Ba/F3 parental cells; settings: Mus musculus, BaF3, 72 h incubation, top concentration 10 uM
Protocol: (§1) Exponentially grown Ba/F3 cells (1.5×10^6 cells in 2 ml medium) were infected with 2 ml of viral suspension in a 6-well plate in the presence of mIL-3 (10 ng/ml) and polybrene (4 μg/ml) (Sigma Aldrich, St. Louis, Mo.) and incubated for 24 h. After 24 h, the cells were centrifuged and the viral supernatant was discarded. The cells were then re-suspended in fresh medium and allowed to recover for another day. The following day, the cells were seeded in complete medium without murine IL-3. After a week or two, when cells started proliferating, a selection was carried out by gradually increasing the puromycin concentration to 0.5 ug/ml. Once the cells were growing exponentially in puromycin, batches of cells were frozen down for banking.
(§2) The impact of KIT inhibitors on the viability of Ba/F3 expressing KIT mutations was determined using an MTS assay, which is a colorimetric sensitive quantification of viable cells in proliferation and cytotoxicity assay. In the MTS assay […] in the presence of phenazine methosulfate (PMS) was used. The mitochondrial reductase forms a formazan which absorbs at 490 nm. Cells in exponential growth phase were added to 384-well plates containing pre-dispensed compounds (top concentration 10 uM, 10-point curve). The cells were incubated for 72 h at 37° C. and 5% CO2. After 72 h, MTS reagent was added to the plates and incubated an additional 2 h at 37° C. before measuring the absorbance at 490 nm on a Tecan microplate reader using Magellan Software (Tecan Trading AG, Switzerland).
(§3) The absorbances were normalized as follows: (Read-Day0 control)/(Day3 control−Day0 control)*100. The GI50 values were generated using Genedata Screener software (Genedata Lexington, Mass.). A non-linear regression with constraints for top and bottom between 100 and −100 and no constraint on the Hill coefficient was used to generate GI50 values. The GI50 values reported below are the calculated mean result of at least 3 biological replicates across all the cell lines tested.

[2] = target: T1, Ba/F3-D816H (KIT exon11 deletion (557-558) and secondary mutation D816H) (Homo sapiens, UniProt P10721, D816H/DEL557-558); experiment: MTS viability assay, Ba/F3 expressing KIT exon11 deletion (557-558) and D816H; settings: 72 h incubation, top concentration 10 uM
T1 construct: expressed in transfected cells; host or cells: Ba/F3 cells, lentiviral transduction (pLVX-IRES Puro)
T1 sequence (P10721 with tags, fused parts or gaps DEL557-558/D816H): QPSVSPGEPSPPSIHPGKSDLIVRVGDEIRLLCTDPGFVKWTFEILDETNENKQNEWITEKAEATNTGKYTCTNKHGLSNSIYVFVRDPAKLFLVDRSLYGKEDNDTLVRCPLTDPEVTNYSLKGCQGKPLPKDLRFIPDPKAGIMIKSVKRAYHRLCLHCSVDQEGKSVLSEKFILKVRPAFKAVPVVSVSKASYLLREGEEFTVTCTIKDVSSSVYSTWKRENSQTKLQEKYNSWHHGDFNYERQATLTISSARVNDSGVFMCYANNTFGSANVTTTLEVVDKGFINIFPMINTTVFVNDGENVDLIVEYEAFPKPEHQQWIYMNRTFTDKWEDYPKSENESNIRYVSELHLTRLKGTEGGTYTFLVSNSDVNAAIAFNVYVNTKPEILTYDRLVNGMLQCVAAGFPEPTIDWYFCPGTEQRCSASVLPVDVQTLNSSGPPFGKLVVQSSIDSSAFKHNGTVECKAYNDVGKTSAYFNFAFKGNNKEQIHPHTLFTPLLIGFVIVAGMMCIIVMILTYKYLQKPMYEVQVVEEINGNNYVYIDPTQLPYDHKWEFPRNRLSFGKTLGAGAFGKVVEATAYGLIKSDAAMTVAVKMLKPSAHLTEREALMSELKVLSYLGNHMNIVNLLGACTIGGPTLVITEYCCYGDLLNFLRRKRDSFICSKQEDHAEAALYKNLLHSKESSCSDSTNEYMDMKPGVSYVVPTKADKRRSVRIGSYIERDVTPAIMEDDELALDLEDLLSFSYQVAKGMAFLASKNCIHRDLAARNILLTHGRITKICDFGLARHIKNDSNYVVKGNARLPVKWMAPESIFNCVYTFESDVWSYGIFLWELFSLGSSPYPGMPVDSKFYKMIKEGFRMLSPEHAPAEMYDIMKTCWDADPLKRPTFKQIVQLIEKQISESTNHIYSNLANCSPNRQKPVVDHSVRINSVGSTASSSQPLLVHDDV
Protocol: as §1, §2, §3

[3] = system: TEL-KDR (KDR (K790-V1356) fused to the C-terminus of Tel); experiment: MTS viability assay, Ba/F3 expressing Tel-KDR; settings: 72 h incubation, top concentration 10 uM
Protocol: Tel-KDR myc was cloned into pBCS2004, a retroviral vector, wherein KDR (K790-V1356) is fused to the C-terminus of Tel. Retroviral particles were generated in HEK293T cells. The Tel-KDR plasmid was co-transfected with helper viruses (gag-Pol and VSV-G) into HEK293T cells using calcium phosphate and the virus was harvested 72 h after transfection.
as §1, §2, §3

[4] = target: T2, Ba/F3-V654A (KIT exon11 deletion (557-558) and secondary mutation V654A) (Homo sapiens, UniProt P10721, DEL557-558/V654A); experiment: MTS viability assay, Ba/F3 expressing KIT exon11 deletion (557-558) and V654A; settings: 72 h incubation, top concentration 10 uM
T2 construct: expressed in transfected cells; host or cells: Ba/F3 cells, lentiviral transduction (pLVX-IRES Puro)
T2 sequence (P10721 with tags, fused parts or gaps DEL557-558/V654A): as the sequence (P10721 with tags, fused parts or gaps DEL557-558/D816H) above, with V627A, H789D counted along it
Protocol: as §1, §2, §3

[5] = target: T3, Ba/F3-T670I (KIT exon11 deletion (557-558) and secondary mutation T670I) (Homo sapiens, UniProt P10721, DEL557-558/T670I); experiment: MTS viability assay, Ba/F3 expressing KIT exon11 deletion (557-558) and T670I; settings: 72 h incubation, top concentration 10 uM
T3 construct: expressed in transfected cells; host or cells: Ba/F3 cells, lentiviral transduction (pLVX-IRES Puro)
T3 sequence (P10721 with tags, fused parts or gaps DEL557-558/T670I): as the sequence (P10721 with tags, fused parts or gaps DEL557-558/D816H) above, with T643I, H789D counted along it
Protocol: as §1, §2, §3

SMILES	GI50 [1] [µM]	Ba/F3-D816H GI50 [2] [µM]	GI50 [3] [µM]	Ba/F3-V654A GI50 [4] [µM]	Ba/F3-T670I GI50 [5] [µM]
COCCOc1cc(OC)c2c(Nc3ccc(NC(=O)Cn4cc(C(C)C)nn4)cc3)ncnc2c1 [Example 20, N-(4-{[5-Methoxy-7-(2-methoxyethoxy)quinazolin-4-yl]amino}phenyl)-2-[4-(propan-2-yl)-1H-1,2,3-triazol-1-yl]acetamide]	9.96	0.030	3.39	0.008	0.053
COc1cc2ncnc(Nc3ccc(NC(=O)Cn4cc(C(C)C)nn4)cc3)c2c(OC)c1OC [Example 11, 2-[4-(Propan-2-yl)-1H-1,2,3-triazol-1-yl]-N-{4-[(5,6,7-trimethoxyquinazolin-4-yl)amino]phenyl}acetamide]	≥ 10	0.027	2.48	0.004	0.036
CCOc1cc(OC2COC2)cc2ncnc(Nc3ccc(NC(=O)Cn4cc(C(C)C)nn4)cc3)c12 [Example 9, N-(4-((5-Ethoxy-7-(oxetan-3-yloxy)quinazolin-4-yl)amino)phenyl)-2-(4-isopropyl-1H-1,2,3-triazol-1-yl)acetamide]	1.71	0.105	2.33	0.012	0.127
